Earlier results on one compound are cited in patent US20030180823A1, “Individualization of therapy with antihistamines” (Xanthus Life Sciences, Inc., priority 2001, published 2003).

Each structure is given as a SMILES string.

This data set deals with skin tests. Conditions: very long half-life.

As for `COc1ccc(CCN2CCC(Nc3nc4ccccc4n3Cc3ccc(F)cc3)CC2)cc1` [Astemizole], the “duration of inhibiting skin tests” value is on record as “up to 6 weeks”.
